Each compound was assayed against Histone deacetylase 2 (Homo sapiens, UniProt Q92769) (assay: Inhibition of full-length recombinant human C-terminal GST tagged HDAC2 expressed in Sf9 insect cells using aminoluciferin peptide substrate at 100 nM preincubated for 3 hrs followed by substrate addition and measured after 30 mins by HDAC-Glo I/II chemiluminescence assay). Settings: time 3.5 hrs.
Histone deacetylase 2, sequence (Q92769 whole entry): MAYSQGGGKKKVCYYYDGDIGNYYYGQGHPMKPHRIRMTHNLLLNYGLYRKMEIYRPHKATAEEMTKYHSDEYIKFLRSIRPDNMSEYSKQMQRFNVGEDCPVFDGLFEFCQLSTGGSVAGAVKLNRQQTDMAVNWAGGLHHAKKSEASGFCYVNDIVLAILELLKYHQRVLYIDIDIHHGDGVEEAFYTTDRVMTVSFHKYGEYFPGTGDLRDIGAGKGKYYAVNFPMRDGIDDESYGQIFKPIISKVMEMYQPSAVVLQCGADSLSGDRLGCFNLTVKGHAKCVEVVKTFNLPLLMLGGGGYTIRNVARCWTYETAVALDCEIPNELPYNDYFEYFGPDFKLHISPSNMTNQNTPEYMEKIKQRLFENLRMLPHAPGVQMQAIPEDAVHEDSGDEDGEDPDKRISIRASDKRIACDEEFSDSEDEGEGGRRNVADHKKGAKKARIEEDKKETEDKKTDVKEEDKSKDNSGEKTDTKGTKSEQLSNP

inhibition [%] | Structure (SMILES)
6 | Nc1ccc(-c2cccs2)cc1NC(=O)c1cn(Cc2cccc(-c3ccccc3)c2)nn1
3 | Nc1ccc(-c2cccs2)cc1NC(=O)c1ccc(-c2cn(CCc3cccc(C(F)(F)F)c3)nn2)cc1
0 | Nc1ccc(-c2cccs2)cc1NC(=O)c1ccc(-c2cn(CCN3CCc4ccccc4C3)nn2)cc1
1 | Cc1cccc(CCn2cc(C(=O)Nc3cc(-c4ccccc4)ccc3N)nn2)c1
17 | Nc1ccc(-c2cccs2)cc1NC(=O)c1cccc(-c2cn(Cc3cccc(C(=O)O)c3)nn2)c1
0 | Nc1ccc(-c2cccs2)cc1NC(=O)c1cccc(-c2cn(Cc3cc4ccccc4s3)nn2)c1
22 | Nc1ccc(-c2cccs2)cc1NC(=O)c1ccc(-c2cn(CC(=O)c3ccccc3)nn2)s1
55 | Nc1ccc(-c2cccs2)cc1NC(=O)c1ccc(-c2cn(CCc3ccc(C(=O)O)cc3)nn2)s1
13 | Nc1ccc(-c2cccs2)cc1NC(=O)c1cn(CCc2cccc([N+](=O)[O-])c2)nn1
0 | Nc1ccc(-c2cccs2)cc1NC(=O)c1ccc(-c2cn(Cc3ccc(-c4ccccc4)cc3)nn2)cc1
0 | Nc1ccc(-c2cccs2)cc1NC(=O)c1ccc(-c2cn(CC3CCCCC3)nn2)cc1
0 | Nc1ccc(-c2cccs2)cc1NC(=O)CCc1cn(CCc2cccc3ccccc23)nn1
0 | Nc1ccc(-c2cccs2)cc1NC(=O)c1cn(-c2cccc3ccccc23)nn1
9 | Nc1ccc(-c2ccccc2)cc1NC(=O)c1cn(CCc2ccc(C(=O)O)cc2)nn1
32 | Nc1ccc(-c2cccs2)cc1NC(=O)c1cccc(-c2cn(Cc3nc4ccccc4[nH]3)nn2)c1
0 | Nc1ccc(-c2cccs2)cc1NC(=O)c1ccc(-c2cn(Cc3cccc(C(=O)O)c3)nn2)cc1
0 | Nc1ccc(-c2cccs2)cc1NC(=O)c1ccc(-c2cn(/C=C/c3ccccc3)nn2)cc1
7 | Nc1ccc(-c2cccs2)cc1NC(=O)c1cccc(-c2cn(-c3ccc(I)cc3)nn2)c1
0 | Nc1ccc(-c2ccsc2)cc1NC(=O)c1cn(CCc2cccc(C(F)(F)F)c2)nn1
37 | Nc1ccc(-c2cccs2)cc1NC(=O)c1ccc(-c2cn(Cc3nc4ccccc4[nH]3)nn2)cc1
65 | Nc1ccc(-c2cccs2)cc1NC(=O)c1ccc(-c2cn(CCc3ccccc3)nn2)cc1
0 | Nc1ccc(-c2ccc(F)cc2)cc1NC(=O)c1cn(CCc2cccc(Cl)c2)nn1
5 | Nc1ccc(-c2cccs2)cc1NC(=O)c1ccc(-c2cn(CCc3ccccc3Cl)nn2)cc1
0 | Nc1ccc(-c2cccnc2)cc1NC(=O)CCc1cn(CCc2ccc(C(F)(F)F)cc2)nn1
24 | Nc1ccc(-c2cccs2)cc1NC(=O)c1ccc(-c2cn(CCc3cccc(F)c3)nn2)s1
0 | Nc1ccc(-c2cccs2)cc1NC(=O)c1ccc(-c2cn(Cc3ccc(OC(F)(F)F)cc3)nn2)s1
0 | Nc1ccc(-c2cccs2)cc1NC(=O)CCc1cn(Cc2ccc(-c3ccccc3)cc2)nn1
51 | Nc1ccc(-n2cc(-c3ccc(C(=O)Nc4cc(-c5cccs5)ccc4N)cc3)nn2)cc1

Continued, compound first:

Structure (SMILES) | inhibition [%]
Nc1ccc(-c2ccsc2)cc1NC(=O)CCc1cn(CCc2cccc([N+](=O)[O-])c2)nn1 | 36
Nc1ccc(-c2cccs2)cc1NC(=O)c1cn(-c2ccccc2-c2ccccc2)nn1 | 0
Nc1ccc(-c2ccc(F)cc2)cc1NC(=O)c1cn(CCc2ccccc2Cl)nn1 | 0
Nc1ccc(-c2cccs2)cc1NC(=O)c1ccc(-c2cn(-c3ccc(O)cc3)nn2)s1 | 20
Nc1ccc(-c2ccccc2)cc1NC(=O)c1cn(Cc2cc3ccccc3s2)nn1 | 0
Nc1ccc(-c2ccc(F)cc2)cc1NC(=O)c1cn(CC(=O)Nc2ccc(F)cc2)nn1 | 32
Nc1ccc(-c2ccc(F)cc2)cc1NC(=O)c1cn(Cc2cc3ccccc3s2)nn1 | 7
Nc1ccc(-c2ccc(F)cc2)cc1NC(=O)c1cn(CCc2ccccc2[N+](=O)[O-])nn1 | 12
Nc1ccc(-c2ccsc2)cc1NC(=O)c1cn(CCc2ccc(C(=O)O)cc2)nn1 | 18
Nc1ccc(-c2ccc(F)cc2)cc1NC(=O)c1cn(CCCCCCC(=O)O)nn1 | 23
Nc1ccc(-c2ccc(F)cc2)cc1NC(=O)CCc1cn(CCN2CCOCC2)nn1 | 0
Nc1ccc(-c2ccccc2)cc1NC(=O)c1cn(CC(=O)c2ccccc2)nn1 | 0
Nc1ccc(-c2ccsc2)cc1NC(=O)c1cn(CCc2ccc(Cl)cc2)nn1 | 0
Nc1ccc(-c2cccnc2)cc1NC(=O)CCc1cn(CCc2ccc([N+](=O)[O-])cc2)nn1 | 3
COc1ccccc1CCn1cc(C(=O)Nc2cc(-c3ccsc3)ccc2N)nn1 | 0
Nc1ccc(-c2cccs2)cc1NC(=O)c1ccc(-c2cn(CCCCCCC(=O)O)nn2)s1 | 28
Nc1ccc(-c2cccnc2)cc1NC(=O)CCc1cn(CCC2CCCCC2)nn1 | 5
Nc1ccc(-c2ccsc2)cc1NC(=O)CCc1cn(-c2cccc3ccccc23)nn1 | 0
COc1ccc(-n2cc(CCC(=O)Nc3cc(-c4ccsc4)ccc3N)nn2)cc1 | 12
Cc1csc(CCn2cc(C(=O)Nc3cc(-c4ccccc4)ccc3N)nn2)n1 | 0
Nc1ccc(-c2cccnc2)cc1NC(=O)CCc1cn(CCN2CCc3ccccc3C2)nn1 | 5
COc1ccc(Cn2cc(CCC(=O)Nc3cc(-c4ccc(F)cc4)ccc3N)nn2)cc1 | 17

Structure (SMILES) | inhibition [%]
Nc1ccc(-c2ccccc2)cc1NC(=O)CCc1cn(CCN2CCOCC2)nn1 | 0
Nc1ccc(-c2ccsc2)cc1NC(=O)CCc1cn(CCc2ccc(Cl)cc2)nn1 | 2
Nc1ccc(-c2ccsc2)cc1NC(=O)c1cn(Cc2ccc3ccccc3n2)nn1 | 19
Nc1ccc(-c2cccnc2)cc1NC(=O)CCc1cn(Cc2ccc(-c3ccccc3)cc2)nn1 | 8
Nc1ccc(-c2cccs2)cc1NC(=O)c1ccc(-c2cn(CCN3CCOCC3)nn2)s1 | 69
Nc1ccc(-c2cccs2)cc1NC(=O)c1ccc(-c2cn(CCN3CCc4ccccc4C3)nn2)s1 | 32
Nc1ccc(-c2ccccc2)cc1NC(=O)c1cn(Cc2nc3ccccc3[nH]2)nn1 | 11
Cc1cccc(CCn2cc(CCC(=O)Nc3cc(-c4ccc(F)cc4)ccc3N)nn2)c1 | 36
Nc1ccc(-c2cccnc2)cc1NC(=O)CCc1cn(-c2ccccc2-c2ccccc2)nn1 | 9
Nc1ccc(-c2ccc(F)cc2)cc1NC(=O)c1cn(CCCCCC(=O)O)nn1 | 20
Nc1ccc(-c2cccs2)cc1NC(=O)c1cn(-c2ccc(Br)cc2)nn1 | 0
Cc1ccccc1CCn1cc(C(=O)Nc2cc(-c3ccsc3)ccc2N)nn1 | 0
Nc1ccc(-c2ccc(F)cc2)cc1NC(=O)CCc1cn(CCC23CC4CC(CC(C4)C2)C3)nn1 | 0
Nc1ccc(-c2ccsc2)cc1NC(=O)c1cn(-c2cccc3ccccc23)nn1 | 0
Nc1ccc(-c2cccs2)cc1NC(=O)c1ccc(-c2cn(CC3CCCCC3)nn2)s1 | 0
Nc1ccc(-c2ccsc2)cc1NC(=O)CCc1cn(CCc2ccsc2)nn1 | 19
Nc1ccc(-c2ccc(F)cc2)cc1NC(=O)c1cn(-c2ccccc2-c2ccccc2)nn1 | 19
Nc1ccc(-c2ccccc2)cc1NC(=O)CCc1cn(CCC2CCCC2)nn1 | 0
Nc1ccc(-c2cccnc2)cc1NC(=O)CCc1cn(-c2ccc(Br)cc2)nn1 | 2
COc1ccccc1CCn1cc(CCC(=O)Nc2cc(-c3cccs3)ccc2N)nn1 | 12
COc1ccccc1CCn1cc(CCC(=O)Nc2cc(-c3ccsc3)ccc2N)nn1 | 20
Nc1ccc(-c2ccc(F)cc2)cc1NC(=O)CCc1cn(Cc2ccc3ccccc3c2)nn1 | 15

Structure (SMILES) | inhibition [%]
Nc1ccc(-c2cccs2)cc1NC(=O)CCc1cn(-c2ccc(Br)cc2)nn1 | 11
Nc1ccc(-c2ccsc2)cc1NC(=O)c1cn(CCc2ccccn2)nn1 | 1
Cc1ccc(-n2cc(CCC(=O)Nc3cc(-c4ccsc4)ccc3N)nn2)cc1C | 0
Nc1ccc(-c2ccc(F)cc2)cc1NC(=O)CCc1cn(C[S+]([O-])c2ccccc2)nn1 (centres undefined) | 17
Nc1ccc(-c2ccc(F)cc2)cc1NC(=O)CCc1cn(CCc2ccc(C(=O)O)cc2)nn1 | 33
Nc1ccc(-c2cccnc2)cc1NC(=O)CCc1cn(Cc2nc3ccccc3[nH]2)nn1 | 11
Nc1ccc(-c2ccccc2)cc1NC(=O)c1cn(CCN2CCOCC2)nn1 | 0
Nc1ccc(-c2cccnc2)cc1NC(=O)CCc1cn(CCc2c[nH]c3ccccc23)nn1 | 19
Nc1ccc(-c2ccc(F)cc2)cc1NC(=O)CCc1cn(-c2ccccc2-c2ccccc2)nn1 | 8
Nc1ccc(-c2ccc(F)cc2)cc1NC(=O)CCc1cn(CCC2CCCC2)nn1 | 0
Nc1ccc(-c2ccsc2)cc1NC(=O)CCc1cn(Cc2cccc3ccccc23)nn1 | 2
Nc1ccc(-c2ccccc2)cc1NC(=O)CCc1cn(Cc2ccc(C(=O)O)cc2)nn1 | 27
Nc1ccc(-c2cccnc2)cc1NC(=O)CCc1cn(CCc2ccccc2Cl)nn1 | 9
Nc1ccc(-c2ccsc2)cc1NC(=O)c1cn(Cc2ccc(C(=O)O)cc2)nn1 | 49
Nc1ccc(-c2ccsc2)cc1NC(=O)CCc1cn(CCc2ccc([N+](=O)[O-])cc2)nn1 | 20
Nc1ccc(-c2cccs2)cc1NC(=O)c1ccc(-c2cn(-c3ccccc3-c3ccccc3)nn2)s1 | 0
Cc1cccc(CCn2cc(CCC(=O)Nc3cc(-c4ccsc4)ccc3N)nn2)c1 | 26
Nc1ccc(-c2cccnc2)cc1NC(=O)CCc1cn(/C=C/c2ccccc2)nn1 | 7
Cc1ccc(CCn2cc(CCC(=O)Nc3cc(-c4ccccc4)ccc3N)nn2)cc1 | 16
Nc1ccc(-c2ccc(F)cc2)cc1NC(=O)CCc1cn(Cc2cccc3ccccc23)nn1 | 14
Nc1ccc(-c2cccs2)cc1NC(=O)CCc1cn(Cc2cc3ccccc3s2)nn1 | 27
Nc1ccc(-c2cccs2)cc1NC(=O)CCc1cn(CC2CCCCC2)nn1 | 0
